Legend:
Assay type in all cases: in vivo
[1] = tested on: diamondback moth (Plutella xylostella); assay: Insecticidal effect on diamondback moth (Test Example 1); conditions: for Insecticidal effect, Test Example 1 / Insecticidal effect (Test Example 1), judged from mortality: diamondback moth; for Insecticidal effect on diamondback moth (Test Example 1), judged grade: mortality judged according to the criterion shown in Test Example 1; for Insecticidal effect (Test Example 1), judged from mortality: judged by the criterion of Test Example 1
Procedure, shortened: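 Triplicate groups of 10 insects: eggs laid on Chinese cabbage seedling by adults, seedling immersed then air-dried, kept at 25° C. Day-6 hatch counts gave mortality, rated by criterion.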

[2] = tested on: common cutworm (Spodoptera Litura); assay: Insecticidal effect on common cutworm (Test Example 2); conditions: 500 ppm, 25° C.; for Insecticidal effect, Test Example 2: cabbage leaf immersed; for Insecticidal effect, Test Example 2 / Insecticidal effect on common cutworm (Test Example 2), judged grade: eight days after inoculation; for Insecticidal effect on common cutworm (Test Example 2), judged grade / Insecticidal effect (Test Example 2), judged from mortality: cabbage leaf dip; for Insecticidal effect on common cutworm (Test Example 2), judged grade: second-instar larvae; for Insecticidal effect (Test Example 2), judged from mortality: 8 days after inoculation
Procedure, shortened: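 Second-instar larvae placed in 9 cm Petri dishes with air-dried treated material, held at 25 °C. Dead and live insects counted 8 days after inoculation; mortality calculated and scored against a set criterion. Triplicate groups of 10 insects.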

[3] = tested on: rice leafroller (Cnaphalocrocis medinalis); assay: Insecticidal effect on rice leafroller (Test Example 3); conditions: 500 ppm, 25° C., humidity 70%; for Insecticidal effect, Test Example 3: rice lamina immersed; for Insecticidal effect, Test Example 3 / Insecticidal effect on rice leafroller (Test Example 3), judged grade: four days after inoculation; for Insecticidal effect on rice leafroller (Test Example 3), judged grade / Insecticidal effect (Test Example 3), judged from mortality: rice lamina dip; for Insecticidal effect on rice leafroller (Test Example 3), judged grade: third-instar larvae; for Insecticidal effect (Test Example 3), judged from mortality: 4 days after inoculation
Procedure, shortened: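 Insecticidal effect is judged by a predefined criterion from dead/alive counts four days after infesting air-dried lamina with third-instar larvae, kept on moistened filter paper at 25° C, 70% humidity.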

[4] = mortality judged by criterion of Test Example 1
[5] = common cutworm second-instar larvae
[6] = rice leafroller third-instar larvae
[7] = second-instar larvae of common cutworm
[8] = third-instar larvae of rice leafroller
[9] = judged by the mortality criterion of Test Example 1

CCCCCNC(=O)c1c(I)cccc1C(=O)Nc1ccc(C(F)(F)C(F)(F)F)cc1C [compound 947]
Insecticidal effect, Test Example 1 [1, 4]: A (100)
Insecticidal effect, Test Example 2 [2, 5]: A (100)
Insecticidal effect, Test Example 3 [3, 6]: A (100)

Cc1cc(OC(F)(F)C(F)Cl)ccc1NC(=O)c1c(F)cccc1C(=O)NC(C)C (stereo not drawn) [compound 567]
Insecticidal effect on diamondback moth (Test Example 1), judged grade [1]: A (100)
Insecticidal effect on common cutworm (Test Example 2), judged grade [2]: D (79-50)
Insecticidal effect on rice leafroller (Test Example 3), judged grade [3]: D (79-50)

CCN(CC)C(=O)c1c(Cl)cccc1C(=O)Nc1ccc(Cl)cc1C [compound 1542]
Insecticidal effect (Test Example 1), judged from mortality [1]: A (100)
Insecticidal effect (Test Example 2), judged from mortality [2, 7]: D (79-50)
Insecticidal effect (Test Example 3), judged from mortality [3, 8]: A (100)

Cc1cc(C(F)(F)C(F)(F)F)ccc1NC(=O)c1ccc(Cl)cc1C(=O)NC(C)C [compound 1277]
Insecticidal effect, Test Example 1 [1, 4]: A (100)
Insecticidal effect, Test Example 2 [2, 5]: A (100)
Insecticidal effect, Test Example 3 [3, 6]: A (100)

Cc1cc(C(F)(C(F)(F)F)C(F)(F)F)ccc1NC(=O)c1cccc(C(F)(F)F)c1C(=O)NC(C)C [compound 1207]
Insecticidal effect, Test Example 1 [1, 4]: A (100)
Insecticidal effect, Test Example 2 [2, 5]: A (100)
Insecticidal effect, Test Example 3 [3, 6]: A (100)

Cc1cc(C(F)(F)C(F)(F)F)ccc1NC(=O)c1cc(I)ccc1C(=O)NC(C)C [compound 1203]
Insecticidal effect, Test Example 1 [1, 4]: A (100)
Insecticidal effect, Test Example 2 [2, 5]: D (79-50)
Insecticidal effect, Test Example 3 [3, 6]: A (100)

Cc1cc(C(F)(F)C(F)(F)F)ccc1NC(=O)c1cccc(Cl)c1C(=O)NC(C)(C)C#Cc1ccc(C(F)(F)F)cc1 [compound 1585]
Insecticidal effect (Test Example 1), judged from mortality [1]: A (100)
Insecticidal effect (Test Example 2), judged from mortality [2, 7]: A (100)
Insecticidal effect (Test Example 3), judged from mortality [3, 8]: A (100)

COCCCNC(=O)c1c(I)cccc1C(=O)Nc1ccc(C(F)(F)C(F)(F)F)cc1C [compound 985]
Insecticidal effect, Test Example 1 [1, 4]: A (100)
Insecticidal effect, Test Example 2 [2, 5]: A (100)
Insecticidal effect, Test Example 3 [3, 6]: A (100)

COc1ccc(NC(=O)c2c(Cl)cccc2C(=O)NC(C)C)c(C)c1C [compound 219]
Insecticidal effect, Test Example 1 [1, 9]: A (100)
Insecticidal effect, Test Example 2 [2, 7]: D (79-50)
Insecticidal effect, Test Example 3 [3, 8]: A (100)

CC(C)NC(=O)c1c(Cl)cccc1C(=O)Nc1cc2c(cc1Cl)OC(F)(F)O2 [compound 1623]
Insecticidal effect (Test Example 1), judged from mortality [1]: A (100)
Insecticidal effect (Test Example 2), judged from mortality [2, 7]: C (89-80)
Insecticidal effect (Test Example 3), judged from mortality [3, 8]: A (100)

C#CC(C)(C)NC(=O)c1ccccc1C(=O)Nc1ccc(C(F)(F)C(F)(F)F)cc1C [compound 1414]
Insecticidal effect, Test Example 1 [1, 4]: A (100)
Insecticidal effect, Test Example 2 [2, 5]: A (100)
Insecticidal effect, Test Example 3 [3, 6]: A (100)

CCC(C)NC(=O)c1c(I)cccc1C(=O)Nc1ccc(C(F)(F)C(F)(F)F)cc1Cl (stereo not drawn) [compound 1473]
Insecticidal effect (Test Example 1), judged from mortality [1]: A (100)
Insecticidal effect (Test Example 2), judged from mortality [2, 7]: A (100)
Insecticidal effect (Test Example 3), judged from mortality [3, 8]: A (100)

Cc1cc(OC(F)(F)C(F)F)ccc1NC(=O)c1c(Cl)cccc1C(=O)NC(C)C [Compound No. 239, 6-chloro-N^1-[4-(1,1,2,2-tetrafluoroethoxy)-2-methylphenyl]-N^2-isopropylphthalic acid diamide]
Insecticidal effect, Test Example 1 [1, 9]: A (100)
Insecticidal effect, Test Example 2 [2, 7]: A (100)
Insecticidal effect, Test Example 3 [3, 8]: A (100)

CC(C)NC(=O)c1c(F)cccc1C(=O)Nc1ccc(OC(F)(F)C(F)OC(F)(F)C(F)(F)C(F)(F)F)cc1 (stereo not drawn) [compound 476]
Insecticidal effect on diamondback moth (Test Example 1), judged grade [1]: A (100)
Insecticidal effect on common cutworm (Test Example 2), judged grade [2]: A (100)
Insecticidal effect on rice leafroller (Test Example 3), judged grade [3]: A (100)

Cc1cc(OC(F)(F)C(F)F)c(Cl)cc1NC(=O)c1cccc(Cl)c1C(=O)NC(C)C [compound 152]
Insecticidal effect, Test Example 1 [1, 9]: A (100)
Insecticidal effect, Test Example 2 [2, 7]: A (100)
Insecticidal effect, Test Example 3 [3, 8]: A (100)

COCC(C)NC(=O)c1c(C(=O)Nc2ccc(OC(F)F)cc2C)cccc1[N+](=O)[O-] (stereo not drawn) [compound 874]
Insecticidal effect on diamondback moth (Test Example 1), judged grade [1]: A (100)
Insecticidal effect on common cutworm (Test Example 2), judged grade [2]: C (89-80)
Insecticidal effect on rice leafroller (Test Example 3), judged grade [3]: A (100)

CC(C)NC(=O)c1c(Cl)cccc1C(=O)Nc1ccc(SC(F)(F)C(F)(F)Br)cc1 [compound 103]
Insecticidal effect, Test Example 1 [1, 9]: A (100)
Insecticidal effect, Test Example 2 [2, 7]: C (89-80)
Insecticidal effect, Test Example 3 [3, 8]: A (100)

CC(C)NC(=O)c1c(C(=O)Nc2ccc3c(c2)OC(F)(F)C(F)O3)cccc1[N+](=O)[O-] (stereo not drawn) [compound 1162]
Insecticidal effect, Test Example 1 [1, 4]: A (100)
Insecticidal effect, Test Example 2 [2, 5]: A (100)
Insecticidal effect, Test Example 3 [3, 6]: A (100)

CCN(CC)C(=O)c1c(I)cccc1C(=O)Nc1ccc(OC(F)(F)F)cc1 [compound 1534]
Insecticidal effect (Test Example 1), judged from mortality [1]: A (100)
Insecticidal effect (Test Example 2), judged from mortality [2, 7]: A (100)
Insecticidal effect (Test Example 3), judged from mortality [3, 8]: A (100)

CC(C)NC(=O)c1c(I)cccc1C(=O)Nc1ccc(C(F)(C(F)(F)F)C(F)(F)F)cc1 [compound 351]
Insecticidal effect, Test Example 1 [1, 9]: A (100)
Insecticidal effect, Test Example 2 [2, 7]: A (100)
Insecticidal effect, Test Example 3 [3, 8]: A (100)

Cc1cc(C(F)(F)C(F)(F)F)ccc1NC(=O)c1cccc(I)c1C(=O)NC(C)C [compound 372, 3-iodo-N^1-(4-pentafluoroethyl-2-methylphenyl)-N^2-isopropyl-phthalic acid diamide]
Insecticidal effect, Test Example 1 [1, 9]: A (100)
Insecticidal effect, Test Example 2 [2, 7]: A (100)
Insecticidal effect, Test Example 3 [3, 8]: A (100)

CC(C)NC(=O)c1c(Cl)cccc1C(=O)Nc1ccc2oc(C(F)(F)F)nc2c1 [compound 165]
Insecticidal effect, Test Example 1 [1, 9]: A (100)
Insecticidal effect, Test Example 2 [2, 7]: B (99-90)
Insecticidal effect, Test Example 3 [3, 8]: C (89-80)

Cc1cc(C(F)(F)C(F)(F)F)ccc1NC(=O)c1c(I)cccc1C(=O)NC(C)C [compound 437]
Insecticidal effect, Test Example 1 [1, 9]: A (100)
Insecticidal effect, Test Example 2 [2, 7]: C (89-80)
Insecticidal effect, Test Example 3 [3, 8]: A (100)

Cc1ccccc1NC(=O)c1cccc([N+](=O)[O-])c1C(=O)NC(C)C [compound 599]
Insecticidal effect on diamondback moth (Test Example 1), judged grade [1]: A (100)
Insecticidal effect on common cutworm (Test Example 2), judged grade [2]: D (79-50)
Insecticidal effect on rice leafroller (Test Example 3), judged grade [3]: A (100)

Cc1cc(OC(F)(F)C(F)(Cl)Cl)ccc1NC(=O)c1cccc(F)c1C(=O)NC(C)C [compound 502]
Insecticidal effect on diamondback moth (Test Example 1), judged grade [1]: A (100)
Insecticidal effect on common cutworm (Test Example 2), judged grade [2]: A (100)
Insecticidal effect on rice leafroller (Test Example 3), judged grade [3]: A (100)

Cc1cc(C(F)(F)C(F)(F)C(F)(F)F)ccc1NC(=O)c1cccc([N+](=O)[O-])c1C(=O)NC(C)C [compound 684]
Insecticidal effect on diamondback moth (Test Example 1), judged grade [1]: A (100)
Insecticidal effect on common cutworm (Test Example 2), judged grade [2]: A (100)
Insecticidal effect on rice leafroller (Test Example 3), judged grade [3]: A (100)

CC(C)NC(=O)c1c(F)cccc1C(=O)Nc1ccc(C(F)(F)C(F)(F)C(F)(F)F)cc1Cl [compound 505]
Insecticidal effect on diamondback moth (Test Example 1), judged grade [1]: A (100)
Insecticidal effect on common cutworm (Test Example 2), judged grade [2]: A (100)
Insecticidal effect on rice leafroller (Test Example 3), judged grade [3]: A (100)

CC(C)NC(=O)c1c(C(=O)Nc2ccc(SC(F)F)cc2)cccc1[N+](=O)[O-] [compound 625]
Insecticidal effect on diamondback moth (Test Example 1), judged grade [1]: A (100)
Insecticidal effect on common cutworm (Test Example 2), judged grade [2]: D (79-50)
Insecticidal effect on rice leafroller (Test Example 3), judged grade [3]: D (79-50)

CC(C)NC(=O)c1c(I)cccc1C(=O)Nc1ccc(I)cc1 [compound 347]
Insecticidal effect, Test Example 1 [1, 9]: A (100)
Insecticidal effect, Test Example 2 [2, 7]: B (99-90)
Insecticidal effect, Test Example 3 [3, 8]: C (89-80)

Cc1cc(C(F)(F)C(F)(F)F)ccc1NC(=O)c1cccc(I)c1C(=O)NC1CC1 [compound 1024]
Insecticidal effect, Test Example 1 [1, 4]: A (100)
Insecticidal effect, Test Example 2 [2, 5]: A (100)
Insecticidal effect, Test Example 3 [3, 6]: A (100)

C#Cc1cccc(C(=O)NC(C)C)c1C(=O)Nc1ccc(Cl)cc1C [compound 801]
Insecticidal effect on diamondback moth (Test Example 1), judged grade [1]: A (100)
Insecticidal effect on common cutworm (Test Example 2), judged grade [2]: A (100)
Insecticidal effect on rice leafroller (Test Example 3), judged grade [3]: D (79-50)

Reference: patent US6362369B1, “Phthalic acid diamide derivatives fluorine-containing aniline compounds as starting material, agricultural and horticultural insecticides, and a method for application of the insecticides” (Nihon Nohyaku Co., Ltd., priority 1997, dated 2002)
